This experiment has as its target (recombinant) catalytic domain of human Bub1 (amino acids 704-1085) (Homo sapiens (Human), UniProt O43683). In words: Bub1 kinase assay (TR-FRET). Format: biochemical. As to conditions: ATP 10 μM, peptide substrate 1 μM, 60 min at 22° C., read-out: Inhibition of Bub1 kinase IC50. The source says: Bub1-inhibitory activities of compounds described in the present invention were quantified using a time-resolved fluorescence energy transfer (TR-FRET) kinase assay which measures phosphorylation of the synthetic peptide Biotin-Ahx-VLLPKKSFAEPG (SEQ ID No. 1) (C-terminus in amide form), purchased from e.g. Biosyntan (Berlin, Germany) by the (recombinant) catalytic domain of human Bub1 (amino acids 704-1085), expressed in Hi5 insect cells with an N-terminal His6-tag and purified by affinity-(Ni-NTA) and size exclusion chromatography.
In a typical assay 11 different concentrations of each compound (0.1 nM, 0.33 nM, 1.1 nM, 3.8 nM, 13 nM, 44 nM, 0.15 μM, 0.51 μM, 1.7 μM, 5.9 μM and 20 μM) were tested in duplicate within the same microtiter plate. To this end, 100-fold concentrated compound solutions (in DMSO) were previously prepared by serial dilution (1:3.4) of 2 mM stocks in a clear low volume 384-well source microtiter plate (Greiner Bio-One, Frickenhausen, Germany), from which 50 nl of compounds were transferred into a black low volume test microtiter plate from the same supplier. Subsequently, 2 μL of Bub1 (the final concentration of Bub1 was adjusted depending on the activity of the enzyme lot in order to be within the linear dynamic range of the assay: typically ˜200 ng/mL were used) in aqueous assay buffer [50 mM Tris/HCl pH 7.5, 10 mM magnesium chloride (MgCl2), 200 mM potassium chloride (KCl), 1.0 mM dithiothreitol (DTT), 0.1 mM sodium ortho-vanadate, 1% (v/v) glycerol, 0.01% (w/v) bovine serum albumine (BSA), 0.005% (v/v) Trition X-100 (Sigma), 1× Complete EDTA-free protease inhibitor mixture (Roche)] were added to the compounds in the test plate and the mixture was incubated for 15 min at 22° C. to allow pre-equilibration of the putative enzyme-inhibitor complexes before the start of the kinase reaction, which was initiated by the addition of 3 μL 1.67-fold concentrated solution (in assay buffer) of adenosine-tri-phosphate (ATP, 10 μM final concentration) and peptide substrate (1 μM final concentration). The resulting mixture (5 μL final volume) was incubated at 22° C. during 60 min. and the reaction w as stopped by the addition of 5 μL of an aqueous EDTA-solution (50 mM EDTA, in 100 mM HEPES pH 7.5 and 0.2% (w/v) bovine serum albumin) which also contained the TR-FRET detection reagents (0.2 μM streptavidin-XL665 [Cisbio Bioassays, Codolet, France] and 1 nM anti-phosho-Serine antibody [Merck Millipore, cat. #35-002] and 0.4 nM LANCE EU-W1024 labeled anti-mouse IgG antibody [Perkin-Elmer, product no. AD0077, alternatively a Terbium-cryptate-labeled anti-mouse IgG antibody from Cisbio Bioassays can be used]). The stopped reaction mixture was further incubated 1 h at 22° C. in order to allow the formation of complexes between peptides and detection reagents. Subsequently, the amount of product was evaluated by measurement of the resonance energy transfer from the Eu-chelate-antibody complex recognizing the Phosphoserine residue to the streptavidin-XL665 bound to the biotin moiety of the peptide. To this end, the fluorescence emissions at 620 nm and 665 nm after excitation at 330-350 nm were measured in a TR-FRET plate reader, e.g. a Rubystar or Pherastar (both from BMG Labtechnologies, Offenburg, Germany) or a Viewlux (Perkin-Elmer) and the ratio of the emissions (665 nm/622 nm) was taken as indicator for the amount of phosphorylated substrate. The data were normalised using two sets of control wells for high−(=enzyme reaction without inhibitor=0%=Minimum inhibition) and low−(=all assay components without enzyme=100%=Maximum inhibition) Bub1 activity. IC50 values were calculated by fitting the normalized inhibition data to a 4-parameter logistic equation (Minimum, Maximum, IC50, Hill; Y=Max+(Min−Max)/(1+(X/IC50)Hill)).
Chain of (recombinant) catalytic domain of human Bub1 (amino acids 704-1085) (O43683 704-1085): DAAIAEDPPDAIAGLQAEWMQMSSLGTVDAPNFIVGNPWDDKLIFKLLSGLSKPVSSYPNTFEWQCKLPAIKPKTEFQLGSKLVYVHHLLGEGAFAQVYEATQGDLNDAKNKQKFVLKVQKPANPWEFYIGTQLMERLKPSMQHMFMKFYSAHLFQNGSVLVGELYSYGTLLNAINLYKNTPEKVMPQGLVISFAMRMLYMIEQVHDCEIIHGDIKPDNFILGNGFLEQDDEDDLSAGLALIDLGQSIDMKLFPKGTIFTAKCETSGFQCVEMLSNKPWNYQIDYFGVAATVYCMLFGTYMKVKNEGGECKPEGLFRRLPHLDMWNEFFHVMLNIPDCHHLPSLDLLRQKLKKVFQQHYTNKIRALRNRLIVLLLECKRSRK
By IC50 is commonly meant the point on the concentration scale where inhibition reaches its midpoint. Turning to `CC1(C)[C@@H]2C[C@H]1C(=O)c1c2[nH]c(-c2ccncc2F)c1Nc1ccccc1` (relative stereo) [Example 10, rel-(5R,7S)-2-(3-Fluoropyridin-4-yl)-6,6-dimethyl-3-(phenylamino)-1,5,6,7-tetrahydro-4H-5,7-methanoindol-4-one], the IC50 is 35 nM.
On to “(5S,7R or 5R,7S)-2-(2-Aminopyridin-4-yl)-6,6-dimethyl-3-(phenylamino)-1,5,6,7-tetrahydro-4H-5,7-methanoindol-4-one [Example 4]”, for which the IC50 turned out to be 2930 nM.
The result for “N-{4-[[(4aR,5aR) or (4aS,5aS)]-3-anilino-5a-methyl-4-oxo-1,4,4a,5,5a,6-hexahydrocyclopropa[f]indol-2-yl]pyridin-2-yl}-3-fluoro-4-methoxybenzamide [Example 50]” reads 13 nM.
In the case of “(4aS,5aS or 4aR,5aR)-3-(Phenylamino)-2-(pyridin-4-yl)-4a,5,5a,6-tetrahydrocyclopropa[f]indol-4(1H)-one [Example 14]”, the IC50 turned out to be 4 nM.
Then `O=C1CCCCc2[nH]c(-c3ccncc3)c(Nc3ccccc3)c21` [Example 22, 3-(Phenylamino)-2-(pyridin-4-yl)-5,6,7,8-tetrahydrocyclohepta[b]pyrrol-4(1H)-one], with 6 nM; and “N-{4-[[(4aS,5aS) or (4aR,5aR)]-3-anilino-5a-methyl-4-oxo-1,4,4a,5,5a,6-hexahydrocyclopropa[f]indol-2-yl]pyridin-2-yl}-3-fluoro-4-methoxybenzamide [Example 51]”, with 12 nM.
The result for “(1S,2S)-2-Fluoro-N-4-[[(4aS,5aS) or (4aR,5aR)]-5a-methyl-4-oxo-3-(phenylamino)-1,4,4a,5,5a,6-hexahydrocyclopropa[f]indol-2-yl]pyridin-2-ylcyclopropanecarboxamide [Example 36]” reads 16 nM.
The result for “(4aR,5aR or 4aS,5aS)-5a-Methyl-3-(phenylamino)-2-(pyridin-4-yl)-4a,5,5a,6-tetrahydrocyclopropa[f]indol-4(1H)-one [Example 17]” reads 5 nM; that for “N-4-[[(4aS,5aS) or (4aR,5aR)]-5a-Methyl-4-oxo-3-(phenylamino)-1,4,4a,5,5a,6-hexahydrocyclopropa[f]indol-2-yl]pyridin-2-yl-1H-pyrazole-3-carboxamide [Example 44]”, 5 nM.
Consider “(4aR,5aR or 4aS,5aS)-3-(Phenylamino)-2-(pyridin-4-yl)-4a,5,5a,6-tetrahydrocyclopropa[f]indol-4(1H)-one [Example 13]”, for which the IC50 was 19 nM.
As for “N-4-[(4aS,5aS or 4aR,5aR)-5a-Methyl-4-oxo-3-(phenylamino)-1,4,4a,5,5a,6-hexahydrocyclopropa[f]indol-2-yl]pyridin-2-ylacetamide [Example 20]”, the IC50 turned out to be 36 nM.
The result for `COc1cc(C(=O)Nc2cc(-c3[nH]c4c(c3Nc3ccccc3)C(=O)[C@H]3C[C@@]3(C)C4=O)ccn2)ccc1F` (relative stereo) [Example 35, 4-Fluoro-3-methoxy-N-4-[rel-(4aS,5aR)-5a-methyl-4,6-dioxo-3-(phenylamino)-1,4,4a,5,5a,6-hexahydrocyclopropa[f]indol-2-yl]pyridin-2-ylbenzamide] reads 71 nM.
Regarding “N-4-[[(4aR,5aR) or (4aS,5aS)]-5a-Methyl-4-oxo-3-(phenylamino)-1,4,4a,5,5a,6-hexahydrocyclopropa[f]indol-2-yl]pyridin-2-yl-1H-pyrazole-3-carboxamide [Example 45]”, the IC50 was 18 nM.
For the compound `C[C@@]12C[C@@H]1C(=O)c1c([nH]c(-c3ccnc(NC(=O)C4(F)CC4)c3)c1Nc1ccccc1)C2=O` (relative stereo) [Example 29, 1-Fluoro-N-4-[rel-(4aS,5aR)-5a-methyl-4,6-dioxo-3-(phenylamino)-1,4,4a,5,5a,6-hexahydrocyclopropa[f]indol-2-yl]pyridin-2-ylcyclopropanecarboxamide], the IC50 stood at 133 nM.
On to “N-{4-[[(4aS,5aS) or (4aR,5aR)]-3-anilino-5a-methyl-4-oxo-1,4,4a,5,5a,6-hexahydrocyclopropa[f]indol-2-yl]pyridin-2-yl}-2,6-difluorobenzamide [Example 47]”, for which the 50% inhibitory concentration (IC50) is 7 nM.
Then “1-Fluoro-N-4-[[(4aS,5aS) or (4aR,5aR)]-5a-methyl-4-oxo-3-(phenylamino)-1,4,4a,5,5a,6-hexahydrocyclopropa[f]indol-2-yl]pyridin-2-ylcyclopropanecarboxamide [Example 30]”, with 17 nM; and `O=C1c2c([nH]c(-c3ccncc3)c2Nc2ccccc2)C[C@H]2C[C@@H]12` (relative stereo) [Example 12, rel-(4aR,5aR)-3-(Phenylamino)-2-(pyridin-4-yl)-4a,5,5a,6-tetrahydrocyclopropa[f]indol-4(1H)-one], with 7 nM.
Then “(1S,2S)-2-Fluoro-N-4-[[(4aR,5aR) or (4aS,5aS)]-5a-methyl-4-oxo-3-(phenylamino)-1,4,4a,5,5a,6-hexahydrocyclopropa[f]indol-2-yl]pyridin-2-ylcyclopropanecarboxamide [Example 37]”, with 11 nM.
Then `C[C@@]12C[C@@H]1C(=O)c1c([nH]c(-c3ccnc(NC(=O)C4CC4)c3)c1Nc1ccccc1)C2=O` (relative stereo) [Example 32, N-4-[rel-(4aS,5aR)-5a-Methyl-4,6-dioxo-3-(phenylamino)-1,4,4a,5,5a,6-hexahydrocyclopropa[f]indol-2-yl]pyridin-2-ylcyclopropanecarboxamide], with 30 nM; and “N-{4-[[(4aR,5aR) or (4aS,5aS)]-3-Anilino-5a-methyl-4-oxo-1,4,4a,5,5a,6-hexahydrocyclopropa[f]indol-2-yl]pyridin-2-yl}-2,6-difluorobenzamide [Example 46]”, with 4 nM.
As to `CC(=O)Nc1cc(-c2[nH]c3c(c2Nc2ccccc2)C(=O)[C@@H]2C[C@H]3C2(C)C)ccn1` (relative stereo) [Example 5, N-4-[rel-(5R,7S)-6,6-Dimethyl-4-oxo-3-(phenylamino)-4,5,6,7-tetrahydro-1H-5,7-methanoindol-2-yl]pyridin-2-ylacetamide], the IC50 was found to be 115 nM.
The result for `Cn1ccc(C(=O)Nc2cc(-c3[nH]c4c(c3Nc3ccccc3)C(=O)[C@H]3C[C@@]3(C)C4=O)ccn2)n1` (relative stereo) [Example 34, 1-Methyl-N-4-[rel-(4aS,5aR)-5a-methyl-4,6-dioxo-3-(phenylamino)-1,4,4a,5,5a,6-hexahydrocyclopropa[f]indol-2-yl]pyridin-2-yl-1H-pyrazole-3-carboxamide] reads 35 nM; that for `O=c1ccccc2[nH]c(-c3ccncc3)c(Nc3ccccc3)c12` [Example 21, 3-(Phenylamino)-2-(pyridin-4-yl)cyclohepta[b]pyrrol-4(1H)-one], 8 nM; that for “N-4-[(4aR,5aR or 4aS,5aS)-5a-Methyl-4-oxo-3-(phenylamino)-1,4,4a,5,5a,6-hexahydrocyclopropa[f]indol-2-yl]pyridin-2-ylacetamide [Example 19]”, 8 nM.

The record behind these values is patent publication US10308629B2, “1H-pyrrol-3-amines” (BAYER PHARMA AKTIENGESELLSCHAFT, priority 2015, dated 2019).
